Measurements: patent US20160100586A1, “MICROBIAL AGRICULTURE” (DSM IP ASSETS B.V., priority 2013, published 2016)

System: Colletotrichum gloeosporioides (CBS272.51)
Assay: Agar plug bio-assay on YME agar, fungal colony radius towards Streptomyces or natamycin plug
Format: cell-based
Method: Three fungal plant pathogens were tested against the selected S. natalensis strains: Fusarium oxysporum f.sp. lycopersici (CBS414.90), Colletotrichum gloeosporioides (CBS272.51) and Alternaria alternata (CBS103.33). Fusarium oxysporum f.sp. lycopersici is a soil borne fungus causing yield loss in e.g. tomato crops (Fusarium Wilt). Colletotrichum gloeosporioides causes e.g. anthracnose, a plant disease recognizable by dark brown lesions on leaves and fruits. Alternaria alternata is a worldwide occurring saprophyte that can cause phytopathogenic reactions in economically important host plants. The selected S. natalensis strains were tested against these fungal plant pathogens as described below. Frozen vials (glycerol stocks) or freeze dried tubes from the selected S. natalensis strains were transferred to 100 ml baffled Erlenmeyer flasks containing 20 ml of Yeast Malt Extract broth (YME). Freeze dried tubes were resuspended in physiological saline and stored 1 hour at room temperature before they were transferred to the medium. The Erlenmeyer flasks were incubated in an incubator shaker for 3 days at 28° C. and 180 rpm. For each strain, 200 μl of liquid media was transferred to YME agar plates (90 mm petridishes containing 20 ml of media) and dispersed with the use of a sterile spreader onto the surface of the media). Subsequently, the agar plates were incubated for 4 days at 28° C. to enhance full colony coverage of the plate surface. The selected fungi were plated directly from a glycerol stock (200 μl) to YME agar and subsequently incubated for 4 days at 28° C. The bio-assay was done as follows. Overgrown Streptomyces and fungi plates made as described above were used to produce agar plugs. The plugs were made by cutting out the agar by using a sterile cork-borer (11 mm diameter) and subsequently removing it by a pre-sterilized spatula. Freshly produced non-inoculated YME agar plates were marked with a line on the back of the petridish. This line with a fixed length of 4 cm was placed in the middle of the petridish. Subsequently, a Streptomyces inoculated agar plug was transferred to the fresh YME agar plate at the left end of the line. The above-described “plug transfer” step was repeated for the respective fungi. The respective fungi plugs were placed at the right end of the line on the same YME agar plate. Each Streptomyces strain was challenged in triplicate against each fungus. For each tested fungus, a control sample was taken (in triplicate) by using a non-inoculated agar plug that was placed on the left side of the petridish. Next, the plates were placed with the plugs on top in an incubator. Subsequently, the plates were stored at 28° C. for 7 days. After 7 days the radius of the fungal colony was measured in the direction of the opposite agar plug (Streptomyces sample). This step was repeated for the control sample. The inhibition zone (in percentage) was calculated by using the following formula: 100%*(r0−r1)/r0 wherein r0 is the radius (in mm, corrected for the plug radius) of the fungal colony from the control sample and wherein r1 is the radius (in mm, corrected for the plug radius) of the fungal colony from the Streptomyces inhibited sample. Frozen vials (glycerol stocks) from the selected S. natalensis strains were transferred to 100 ml baffled Erlenmeyer flasks containing 20 ml of Yeast Malt Extract broth (YME). The Erlenmeyer flasks were incubated in an incubator shaker for 3 days at 28° C. and 180 rpm. For each strain, 200 μl of liquid media was transferred to YME agar plates and incubated for 4 days at 28° C. to enhance full colony coverage of the plate surface. Botrytis cinerea was plated directly from glycerol stock (100 μl) to YME agar and subsequently incubated for 9 days at 28° C. All other selected fungi were plated directly from a glycerol stock (200 μl) to YME agar and subsequently incubated for 4 days at 28° C. […]

## C[C@@H]1C/C=C/C=C/C=C/C=C/[C@H](O[C@@H]2O[C@H](C)[C@@H](O)[C@H](N)[C@@H]2O)C[C@@H]2O[C@](O)(C[C@@H](O)C[C@H]3O[C@@H]3/C=C/C(=O)O1)C[C@H](O)[C@H]2C(=O)O [Natamycin, natamycin]
Colletotrichum gloeosporioides, CBS272, 168 h, Example 7, agar plug with 10 ppm natamycin, 5% w/w methanol, 7 days at 28° C., read-out: Average inhibition zone (in %)
  inhibition at 10 ppm: 4%
Colletotrichum gloeosporioides, CBS272, 168 h, Example 7, agar plug with 25 ppm natamycin, 5% w/w methanol, 7 days at 28° C., read-out: Average inhibition zone (in %)
  inhibition at 25 ppm: 7%
Colletotrichum gloeosporioides, CBS272, 168 h, Example 7, agar plug with 50 ppm natamycin, 5% w/w methanol, 7 days at 28° C., read-out: Average inhibition zone (in %)
  inhibition at 50 ppm: 15%
Colletotrichum gloeosporioides, CBS272, 168 h, Example 7, agar plug with 75 ppm natamycin, 5% w/w methanol, 7 days at 28° C., read-out: Average inhibition zone (in %)
  inhibition at 75 ppm: 18%
Colletotrichum gloeosporioides, CBS272, 168 h, Example 7, agar plug with 100 ppm natamycin, 5% w/w methanol, 7 days at 28° C., read-out: Average inhibition zone (in %)
  inhibition at 100 ppm: 21%
Colletotrichum gloeosporioides, CBS272, 168 h, Example 7, agar plug with 175 ppm natamycin, 5% w/w methanol, 7 days at 28° C., read-out: Average inhibition zone (in %)
  inhibition at 175 ppm: 25%
Colletotrichum gloeosporioides, CBS272, 168 h, Example 7, agar plug with 250 ppm natamycin, 5% w/w methanol, 7 days at 28° C., read-out: Average inhibition zone (in %)
  inhibition at 250 ppm: 28%
Colletotrichum gloeosporioides, CBS272, 168 h, Example 7, agar plug with 375 ppm natamycin, 5% w/w methanol, 7 days at 28° C., read-out: Average inhibition zone (in %)
  inhibition at 375 ppm: 35%
Colletotrichum gloeosporioides, CBS272, 168 h, Example 7, agar plug with 500 ppm natamycin, 5% w/w methanol, 7 days at 28° C., read-out: Average inhibition zone (in %)
  inhibition at 500 ppm: 41%
Example 7, 7 days at 28° C.
  natamycin concentration in agar plug giving similar inhibition zone as the S. natalensis ATCC-27448 agar plug: approximately 375 ppm
Example 7, agar plug with 10 ppm natamycin, 5% w/w methanol, 7 days at 28° C.
  Fungal radius (in mm): 44.3 mm
Example 7, agar plug with 25 ppm natamycin, 5% w/w methanol, 7 days at 28° C.
  Fungal radius (in mm): 43.2 mm
Example 7, agar plug with 50 ppm natamycin, 5% w/w methanol, 7 days at 28° C.
  Fungal radius (in mm): 39.3 mm
Example 7, agar plug with 75 ppm natamycin, 5% w/w methanol, 7 days at 28° C.
  Fungal radius (in mm): 37.8 mm
Example 7, agar plug with 100 ppm natamycin, 5% w/w methanol, 7 days at 28° C.
  Fungal radius (in mm): 36.7 mm
Example 7, agar plug with 175 ppm natamycin, 5% w/w methanol, 7 days at 28° C.
  Fungal radius (in mm): 34.8 mm
Example 7, agar plug with 250 ppm natamycin, 5% w/w methanol, 7 days at 28° C.
  Fungal radius (in mm): 33.2 mm
Example 7, agar plug with 375 ppm natamycin, 5% w/w methanol, 7 days at 28° C.
  Fungal radius (in mm): 30.3 mm
Example 7, agar plug with 500 ppm natamycin, 5% w/w methanol, 7 days at 28° C.
  Fungal radius (in mm): 27.3 mm
